Results: ChEMBL document CHEMBL4825735, “Estimation of the lipophilicity of purine-2,6-dione-based TRPA1 antagonists and PDE4/7 inhibitors with analgesic activity” (Bioorg Med Chem Lett, 2021)

Assay: Lipophilicity, logP of compound by shake flask method
Assay type: physicochemical
Conditions: octanol/water

Structure (SMILES)	logP
COc1ccc(Cc2nccc3cc(OC)c(OC)cc23)cc1OC [PAPAVERINE]	3

Assay: Relative lipophilicity of the compound in methanol assessed as retardation factor by reversed-phase TLC analysis
Assay type: physicochemical
Conditions: not given

Structure (SMILES)	Rm
CCOc1nc2c(c(=O)n(C)c(=O)n2C)n1CCCC(=O)Nc1ccc(C(C)C)cc1	4.4
CCCCOc1nc2c(c(=O)n(C)c(=O)n2C)n1CCCC(=O)Nc1ccc(C(C)CC)cc1 (configuration not stated)	4.7
CCCCOc1nc2c(c(=O)n(C)c(=O)n2C)n1CCCC(=O)Nc1cc(C(C)CC)ccc1O (configuration not stated)	4.87
O=C(CCCN1CCC(O)(c2ccc(Cl)cc2)CC1)c1ccc(F)cc1 [HALOPERIDOL]	3.61
COc1nc2c(c(=O)n(C)c(=O)n2C)n1CC(=O)Nc1ccc(C(C)(C)C)cc1	3.92
CCC1(c2ccccc2)C(=O)NC(=O)NC1=O [PHENOBARBITAL]	1.9
CCOc1nc2c(c(=O)n(C)c(=O)n2C)n1CC(=O)Nc1ccc(C(C)(C)C)cc1	3.99
Cn1c(=O)c2[nH]cnc2n(C)c1=O.O [THEOPHYLLINE]	0.61
CCOc1nc2c(c(=O)n(C)c(=O)n2C)n1CCCC(=O)Nc1ccc(C(C)(C)C)cc1	3.84
O=c1n(CCCN2CCN(c3cccc(Cl)c3)CC2)nc2ccccn12 [TRAZODONE]	2.65
COc1nc2c(c(=O)n(C)c(=O)n2C)n1CC(=O)Nc1ccc(C(C)C)cc1	3.28
COc1nc2c(c(=O)n(C)c(=O)n2C)n1CCCC(=O)Nc1ccc(C(C)C)cc1	3.8
CCC1(CC)C(=O)NC(=O)NC1=O [BARBITAL]	0.8
C[C@]12C=CC(=O)C=C1CC[C@@H]1[C@@H]2[C@@H](O)C[C@@]2(C)[C@H]1CC[C@]2(O)C(=O)CO [PREDNISOLONE]	2.49
CCCOc1nc2c(c(=O)n(C)c(=O)n2C)n1CCCC(=O)Nc1ccc(C(C)CC)cc1 (configuration not stated)	4.86
CCCOc1nc2c(c(=O)n(C)c(=O)n2C)n1CCCC(=O)Nc1cc(C(C)CC)ccc1O (configuration not stated)	4.52
CCOc1nc2c(c(=O)n(C)c(=O)n2C)n1CC(=O)Nc1ccc(C(C)C)cc1	3.86
CCCOc1nc2c(c(=O)n(C)c(=O)n2C)n1CCCC(=O)Nc1ccc(C(C)(C)C)cc1	4.81
COc1nc2c(c(=O)n(C)c(=O)n2C)n1CCCC(=O)Nc1ccc(C(C)(C)C)cc1	3.82
O=C1NC(=O)C(c2ccccc2)(c2ccccc2)N1 [PHENYTOIN]	2.43
CCOC(=O)c1ccc(N)cc1 [BENZOCAINE]	1.92
COc1ccc(Cc2nccc3cc(OC)c(OC)cc23)cc1OC [PAPAVERINE]	2.79
Cn1cnc2c1c(=O)[nH]c(=O)n2C [THEOBROMINE]	0.26
CC(=O)Nc1ccc(O)cc1 [ACETAMINOPHEN]	0.31
CCCOc1nc2c(c(=O)n(C)c(=O)n2C)n1CCCC(=O)Nc1ccc(C(C)C)cc1	4.4
CCN(CC)CC(=O)Nc1c(C)cccc1C [LIDOCAINE]	1.31
